# Results as given in patent US8278345B2, “Inhibitors of glutaminyl cyclase” (Probiodrug AG, priority 2006, dated 2012).
# Molecular target: hQC (Homo sapiens, UniProt Q16769)
# Assay: Inhibitor assay for glutaminyl cyclase activity (fluorometric, H-Gln-βNA / H-Gln-AMC)
# Assay type: biochemical
# Conditions: read-out: IC50
# Summary of the method: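 Coupled fluorometric assay at 30 °C with pyroglutamyl aminopeptidase, in Tris/HCl pH 8.0 with EDTA, substrate H-Gln-βNA (0.2 mM; ex/em 320/410 nm) or H-Gln-AMC (ex/em 380/460 nm), initiated by QC. Screening: 4 mM inhibitor, substrate at 1 KM; Ki from progress curves fitted to competitive inhibition.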
# Chain of hQC (Q16769 29-361): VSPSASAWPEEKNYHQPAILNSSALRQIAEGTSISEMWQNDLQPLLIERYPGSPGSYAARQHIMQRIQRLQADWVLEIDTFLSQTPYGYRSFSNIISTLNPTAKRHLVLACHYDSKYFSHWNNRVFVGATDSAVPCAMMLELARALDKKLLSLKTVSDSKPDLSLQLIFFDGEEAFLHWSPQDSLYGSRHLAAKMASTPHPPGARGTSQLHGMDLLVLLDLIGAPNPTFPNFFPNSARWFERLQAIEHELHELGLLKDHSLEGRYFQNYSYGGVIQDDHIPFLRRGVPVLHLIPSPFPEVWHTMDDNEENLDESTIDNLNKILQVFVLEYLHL
row,IC50 [nM],SMILES
1,400,"CCCCCC1=C(O)C(=O)N(CCCn2ccnc2)C1Cc1ccccc1 (stereo not shown) [Compound 206, 5-Benzyl-3-hydroxy-1-(3-imidazol-1-yl-propyl)-4-pentyl-1,5-dihydro-pyrrol-2-one]"
2,40,"CCC1=C(O)C(=O)N(CCCn2ccnc2)C1c1cccc(Cl)c1 (stereo not shown) [Compound 249, 5-(3-Chloro-phenyl)-4-ethyl-3-hydroxy-1-(3-imidazol-1-yl-propyl)-1,5-dihydro-pyrrol-2-one]"
3,400,"O=C1C(O)=C(c2c[nH]c3ccccc23)C(Cc2ccccc2)N1CCCn1ccnc1 (stereo not shown) [Compound 134, 5-Benzyl-3-hydroxy-1-(3-imidazol-1-yl-propyl)-4-(1H-indol-3-yl)-l 5-dihydro-pyrrol-2-one]"
4,400,"CCC1=C(O)C(=O)N(CCCn2ccnc2)C1c1ccc(C)cc1 (stereo not shown) [Compound 221, 4-Ethyl-3-hydroxy-1-(3-imidazol-1-yl-propyl)-5-p-tolyl-1,5-dihydro-pyrrol-2-one]"
5,4450,"CC(C)(C)C(=O)C1=C(O)C(=O)N(c2ccc3[nH]cnc3c2)C1c1cc(Br)ccc1F (stereo not shown) [Compound 396, 1-(1H-Benzoimidazol-5-yl)-5-(5-bromo-2-fluoro-phenyl)-4-(2,2-dimethyl-propionyl)-3-hydroxy-1,5-dihydro-pyrrol-2-one]"
6,3100,"CC1=C(O)C(=O)N(c2ccc3[nH]cnc3c2)C1c1csc2ccccc12 (stereo not shown) [Compound 347, 5-Benzo[b]thiophen-3-yl-1-(1H-benzoimidazol-5-yl)-3-hydroxy-4-methyl-1,5-dihydro-pyrrol-2-one]"
7,6880,"CC(=O)C1=C(O)C(=O)N(c2ccc3[nH]cnc3c2)C1c1cc[nH]n1 (stereo not shown) [Compound 444, 4-Acetyl-1-(1H-benzoimidazol-5-yl)-3-hydroxy-5-(1H-pyrazol-3-yl)-1,5-dihydro-pyrrol-2-one]"
8,400,"CCCC1C(c2cccc(O)c2)=C(O)C(=O)N1CCCn1ccnc1 (stereo not shown) [Compound 7, 3-Hydroxy-4-(3-hydroxy-phenyl)-1-(3-imidazol-1-yl-propyl)-5-propyl-1,5-dihydro-pyrrol-2-one]"
9,6700,"CC(C)/C=C/C1C(c2ccccc2)=C(O)C(=O)N1CCCn1ccnc1 (stereo not shown) [Compound 83, 3-Hydroxy-1-(3-imidazol-1-yl-propyl)-5-(3-methyl-but-1-enyl)-4-phenyl-1,5-dihydro-pyrrol-2-one]"
10,40,"O=C1C(O)=C(c2c[nH]c3ccccc23)C(c2ccccn2)N1CCCn1ccnc1 (stereo not shown) [Compound 135, 3-Hydroxy-1-(3-imidazol-1-yl-propyl)-4-(1H-indol-3-yl)-5-pyridin-2-yl-1,5-dihydro-pyrrol-2-one]"
11,3100,"O=C1C(O)=C(c2ccccc2)C(c2ccccc2O)N1CCCn1ccnc1 (stereo not shown) [Compound 87, 3-Hydroxy-5-(2-hydroxy-phenyl)-1-(3-imidazol-1-yl-propyl)-4-phenyl-1,5-dihydro-pyrrol-2-one]"
12,3640,"Cc1cccc(C2C(c3cccc(O)c3)=C(O)C(=O)N2c2ccc3[nH]cnc3c2)c1 (stereo not shown) [Compound 434, 1-(1H-Benzoimidazol-5-yl)-3-hydroxy-4-(3-hydroxy-phenyl)-5-m-tolyl-1,5-dihydro-pyrrol-2-one]"
13,400,"Cc1ccc(C2C(c3c[nH]c4ccccc34)=C(O)C(=O)N2CCCn2ccnc2)o1 (stereo not shown) [Compound 119, 3-Hydroxy-1-(3-imidazol-1-yl-propyl)-4-(1H-indol-3-yl)-5-(5-methyl-furan-2-yl)-1,5-dihydro-pyrrol-2-one]"
14,40,"O=C1C(O)=C(c2ccccc2)C(c2c[nH]c3ccccc23)N1CCCn1ccnc1 (stereo not shown) [Compound 97, 3-Hydroxy-1-(3-imidazol-1-yl-propyl)-5-(1H-indol-3-yl)-4-phenyl-1,5-dihydro-pyrrol-2-one]"
15,940,"CCCCCC1=C(O)C(=O)N(c2ccc3[nH]cnc3c2)C1c1ccccc1F (stereo not shown) [Compound 325, 1-(1H-Benzoimidazol-5-yl)-5-(2-fluoro-phenyl)-3-hydroxy-4-pentyl-1,5-dihydro-pyrrol-2-one]"
16,3010,"CC(C)(C)C(=O)C1=C(O)C(=O)N(c2ccc3[nH]cnc3c2)C1c1ccc(-c2ccccn2)cc1 (stereo not shown) [Compound 401, 1-(1H-Benzoimidazol-5-yl)-4-(2,2-dimethyl-propionyl)-3-hydroxy-5-(4-pyridin-2-yl-phenyl)-1,5-dihydro-pyrrol-2-one]"
17,400,"Cc1ccc(C2C(C(C)C)=C(O)C(=O)N2CCCn2ccnc2)cc1C (stereo not shown) [Compound 61, 5-(3,4-Dimethyl-phenyl)-3-hydroxy-1-(3-imidazol-1-yl-propyl)-4-isopropyl-1,5-dihydro-pyrrol-2-one]"
18,1300,"CCCCCC1=C(O)C(=O)N(CCCn2ccnc2)C1C1=CCCCC1 (stereo not shown) [Compound 201, 5-Cyclohex-1-enyl-3-hydroxy-1-(3-imidazol-1-yl-propyl)-4-pentyl-1,5-dihydro-pyrrol-2-one]"
19,850,"CCCC(=O)C1=C(O)C(=O)N(c2ccc3[nH]cnc3c2)C1c1ccsc1 (stereo not shown) [Compound 424, 1-(1H-Benzoimidazol-5-yl)-4-butyryl-3-hydroxy-5-thiophen-3-yl-1,5-dihydro-pyrrol-2-one]"

row,IC50 [nM],SMILES
1,400,"CCC1=C(O)C(=O)N(CCCn2ccnc2)C1c1c[nH]c2cc(C)ccc12 (stereo not shown) [Compound 239, 4-Ethyl-3-hydroxy-1-(3-imidazol-1-yl-propyl)-5-(6-methyl-1H-indol-3-yl)-1,5-dihydro-pyrrol-2-one]"
2,2200,"Cc1ccc(C2C(c3cccc(O)c3)=C(O)C(=O)N2CCCn2ccnc2)cc1 (stereo not shown) [Compound 5, 3-Hydroxy-4-(3-hydroxy-phenyl)-1-(3-imidazol-1-yl-propyl)-5-p-tolyl-1,5-dihydro-pyrrol-2-one]"
3,1660,"CCCCCC1=C(O)C(=O)N(c2ccc3[nH]cnc3c2)C1c1cccc(F)c1 (stereo not shown) [Compound 323, 1-(1H-Benzoimidazol-5-yl)-5-(3-fluoro-phenyl)-3-hydroxy-4-pentyl-1,5-dihydro-pyrrol-2-one]"
4,2200,"CC1=C(O)C(=O)N(CCCn2ccnc2)C1C1CC1 (stereo not shown) [Compound 46, 5-Cyclopropyl-3-hydroxy-1-(3-imidazol-1-yl-propyl)-4-methyl-1,5-dihydro-pyrrol-2-one]"
5,6880,"O=C1C(O)=C(c2ccccc2)C(c2ccc(N3CCCC3)cc2)N1c1ccc2[nH]cnc2c1 (stereo not shown) [Compound 309, 1-(1H-Benzoimidazol-5-yl)-3-hydroxy-4-phenyl-5-(4-pyrrolidin-1-yl-phenyl)-1,5-dihydro-pyrrol-2-one]"
6,40,"O=C1C(O)=C(c2ccc(O)cc2)C(c2cccc(O)c2)N1CCCn1ccnc1 (stereo not shown) [Compound 182, 3-Hydroxy-5-(3-hydroxy-phenyl)-4-(4-hydroxy-phenyl)-1-(3-imidazol-1-yl-propyl)-1,5-dihydro-pyrrol-2-one]"
7,40,"CCC1=C(O)C(=O)N(c2ccc3[nH]cnc3c2)C1c1coc2ccc(C)cc2c1=O (stereo not shown) [Compound 428, 1-(1H-Benzoimidazol-5-yl)-4-ethyl-3-hydroxy-5-(6-methyl-4-oxo-4H-chromen-3-yl)-1,5-dihydro-pyrrol-2-one]"
8,7870,"Cc1[nH]c2ccccc2c1C1C(C(=O)C2CC2)=C(O)C(=O)N1c1ccc2[nH]cnc2c1 (stereo not shown) [Compound 298, 1-(1H-Benzoimidazol-5-yl)-4-cyclopropanecarbonyl-3-hydroxy-5-(2-methyl-1H-indol-3-yl)-1,5-dihydro-pyrrol-2-one]"
9,4,"CC(=O)C1=C(O)C(=O)N(c2ccc3[nH]cnc3c2)C1c1ccc(CO)o1 (stereo not shown) [Compound 352, 4-Acetyl-1-(1H-benzoimidazol-5-yl)-3-hydroxy-5-(5-hydroxymethyl-furan-2-yl)-1,5-dihydro-pyrrol-2-one]"
10,2200,"CC1=C(O)C(=O)N(CCCn2ccnc2)C1C1=CCCCC1 (stereo not shown) [Compound 36, 5-Cyclohex-1-enyl-3-hydroxy-1-(3-imidazol-1-yl-propyl)-4-methyl-1,5-dihydro-pyrrol-2-one]"
11,3000,"O=C(C1=C(O)C(=O)N(c2ccc3[nH]cnc3c2)C1c1ccnc2ccccc12)C1CC1 (stereo not shown) [Compound 296, 1-(1H-Benzoimidazol-5-yl)-4-cyclopropanecarbonyl-3-hydroxy-5-quinolin-4-yl-1,5-dihydro-pyrrol-2-one]"
12,2380,"O=C(O)CC1=C(O)C(=O)N(c2ccc3[nH]cnc3c2)C1c1ccnc2ccccc12 (stereo not shown) [Compound 297, [1-(1H-Benzoimidazol-5-yl)-4-hydroxy-5-oxo-2-quinolin-4-yl-2,5-dihydro-1H-pyrrol-3-yl]-acetic acid]"
13,40,"O=C1C(O)=C(c2ccc(O)cc2)C(c2ccccc2O)N1CCCn1ccnc1 (stereo not shown) [Compound 157, 3-Hydroxy-5-(2-hydroxy-phenyl)-4-(4-hydroxy-phenyl)-1-(3-imidazol-1-yl-propyl)-1,5-dihydro-pyrrol-2-one]"
14,3100,"CC1=C(O)C(=O)N(CCCn2ccnc2)C1/C=C/c1ccccc1 (stereo not shown) [Compound 33, 3-Hydroxy-1-(3-imidazol-1-yl-propyl)-4-methyl-5-(styryl)-1,5-dihydro-pyrrol-2-one]"
15,580,"Cc1cccc(C2C(C(=O)C3CC3)=C(O)C(=O)N2c2ccc3[nH]cnc3c2)n1 (stereo not shown) [Compound 316, 1-(1H-Benzoimidazol-5-yl)-4-cyclopropanecarbonyl-3-hydroxy-5-(6-methyl-pyridin-2-yl)-1,5-dihydro-pyrrol-2-one]"
16,40,"Cc1cccc(C2C(C(=O)C3CC3)=C(O)C(=O)N2c2ccc3[nH]cnc3c2)c1 (stereo not shown) [Compound 260, 1-(1H-Benzoimidazol-5-yl)-4-cyclopropanecarbonyl-3-hydroxy-5-m-tolyl-1,5-dihydro-pyrrol-2-one]"
17,400,"O=C1C(O)=C(c2c[nH]c3ccccc23)C(c2ccc(O)cc2)N1CCCn1ccnc1 (stereo not shown) [Compound 145, 3-Hydroxy-5-(4-hydroxy-phenyl)-1-(3-imidazol-1-yl-propyl)-4-(1H-indol-3-yl)-1,5-dihydro-pyrrol-2-one]"
18,4090,"CC1=C(O)C(=O)N(c2ccc3[nH]cnc3c2)C1c1c(F)c(F)cc(F)c1F (stereo not shown) [Compound 393, 1-(1H-Benzoimidazol-5-yl)-3-hydroxy-4-methyl-5-(2,3,5,6-tetrafluoro-phenyl)-1,5-dihydro-pyrrol-2-one]"
